Results on eleven compounds are retold here after US20070015774A1, “Quinazoline derivatives useful in cancer treatment” (Schering Corporation, priority 2005, published 2007).

Structures are written as SMILES.

The target of the first assay is GST-p53 DNA binding domain (aa 92-aa 312) (Homo sapiens, UniProt P04637). The assay can be described thus: Scintillation Proximity Assay (SPA), displacement of 3H STANDARD COMPOUND
Chain of GST-p53 DNA binding domain (aa 92-aa 312) (P04637 92-312): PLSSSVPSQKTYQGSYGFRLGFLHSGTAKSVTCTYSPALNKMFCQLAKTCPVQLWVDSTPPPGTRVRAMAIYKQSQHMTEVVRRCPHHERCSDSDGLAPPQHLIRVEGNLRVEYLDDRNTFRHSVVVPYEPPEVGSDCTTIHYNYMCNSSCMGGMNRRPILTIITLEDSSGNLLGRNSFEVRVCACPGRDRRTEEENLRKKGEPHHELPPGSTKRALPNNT
Conditions: 2 ug/mL; residual total binding of 3H STANDARD COMPOUND
The source says: Most of the oncogenic mutants of the tumor suppressor protein p53 lack sequence specific DNA binding activity at physiological temperature due to conformational changes in the DNA binding domain. Small molecules and peptide which bind to the p53 DNA binding domain stabilize the conformation and restore DNA binding activity to mutant p53 protein (Science 286, 2507-2510, 1999; PNAS, 99, 937-942, 2002). Using ^3H STANDARD COMPOUND (structure shown below; carbon atom with * is the atom labelled), [drawing 1366] a radio labeled small molecule which binds to p53, and the GST-p53 DNA binding domain (aa 92-aa 312), we have developed a quantitative screening assay. The assay is based on Scintillation Proximity Assay (SPA) technology, developed by Amersham Biosciences to measure molecular interactions. Briefly, the complex of GST-p53, ^3H STANDARD and Glutathione-SPA beads (Amersham Biosciences) are incubated with mixing for 1 hr at room temperature in the presence of the novel compounds to be screened. The signal is read on Microbeta. The compounds which have the ability to displace ^3H STANDARD COMPOUND are selected. Such molecules will stabilize the conformation and restore DNA binding activity to mutant p53 protein.
The above assay was used to determine the ability of the compounds of this invention to directly bind to p53 core and restore DNA binding activity to mutant p53 and the results for selected compounds have been given above in various tables.
A letter rating corresponding to % Residual total binding (T) @ 2 ug/mL of drug (i.e., compound of the present invention) from this assay have been assigned as follows: Compounds having % Residual T values of from 0% to less than 20% have been assigned the letter “A”. Compounds having % Residual T values of from 20% to less than 40% have been assigned the letter “B”. Compounds having % Residual T values of from 40% to less than 80% have been assigned the letter “C”. Compounds having % Residual T values of 80% or higher have been assigned the letter “D”. The exact % Residual T values @ 2 ug/mL for some illustrative compounds are shown below: […]
In the case of `CN(Cc1ccccc1)Cc1nc2ccccc2c(=O)[nH]1` [Preparative Example 17, 2-[(benzylmethylamino)methyl]-3H-quinazolin-4-one], the “% Residual T @ 2 ug/mL according to scintillation proximity assay (SPA)” value (shortened to “% Residual T @ 2 ug/mL according”) is “B (% Residual T values of from 20% to less than 40%)”.
The same measure, in the same setting: next, `CN(C)CCCNc1nc(CN(C)Cc2ccccc2)nc2ccccc12` [Preparative Example 19, N,N-dimethyl-N′-[2-{(N-methyl-N-benzylamino)methyl}quinazolin-4-yl]propane-1,3-diamine]: “B (% Residual T values of from 20% to less than 40%)”.
`CNCc1nc(NCCCN(C)C)c2ccccc2n1` [Preparative Example 20, N,N-DIMETHYL-N′-[2-(METHYLAMINOMETHYL)QUINAZOLIN-4-YL]PROPANE-1,3-DIAMINE]: the “% Residual T @ 2 ug/mL according” value is listed as “C (% Residual T values of from 40% to less than 80%)”.
As to `CN(C)CCC[C@H](N)C(N)=O` [Preparative Example 42, 2(S)-(+)-AMINO-5-DIMETHYLAMINOPENTANAMIDE], the “% Residual T @ 2 ug/mL according” value was “D (% Residual T values of 80% or higher)”.

Still in this assay, the particulars now being: 1 h, 2 ug/mL of drug; exact values; number in brackets = number of determinations averaged; read-out: SPA ASSAY % Residual T @ 2 ug/mL of drug (Average of).
As to `CN(C)CCCNc1nc(CN(C)C2CCC(C#N)(c3ccccc3)CC2)nc2ccccc12` (stereo not shown) [38-90], the remaining activity at 2 µg/mL was 5.5%.
In the case of `CN(C)CCCNc1nc(CN(C)C2CCN(C(=O)c3ccccc3)CC2)nc2ccccc12` [38-91], the remaining activity at 2 µg/mL turned out to be 20.7%.
Take `COc1ccc(/C=C/c2nc(NCCCN(C)C)c3ccccc3n2)cc1` [CP-31398, reference compound]: the remaining activity at 2 µg/mL stood at 61.3%.
For `CN(Cc1ccccc1)Cc1nc2ccccc2c(=O)[nH]1` [PE-17], the remaining activity at 2 µg/mL came out at 36.8%.
Consider `CN(C)CCCNc1nc(CN(C)Cc2ccccc2)nc2ccccc12` [PE-19], for which the remaining activity at 2 µg/mL came out at 22.2%.

Still in this assay, the particulars now being: 1 h, 2 ug/mL of drug; letter rating; Examples 41 table; read-out: SPA ASSAY % Residual T @ 2 ug/mL of drug (Average of).
In the case of `COc1ccc(Cl)cc1NC(=O)N(C)Cc1nc(NCCCN(C)C)c2ccccc2n1` [41-30], the remaining activity at 2 µg/mL was in the range of 40 to 80%.

Still in this assay, the particulars now being: 1 h, 2 ug/mL of drug; letter rating; number in brackets = number of determinations averaged; read-out: SPA ASSAY % Residual T @ 2 ug/mL of drug (Average of).
Take `CN(C)CCCNc1nc(CN(C)C2CCC(C#N)(c3ccccc3)CC2)nc2ccccc12` (stereo not shown) [38-90]: the remaining activity at 2 µg/mL is 0 to 20%.
As to `CN(C)CCCNc1nc(CN(C)C2CCN(C(=O)c3ccccc3)CC2)nc2ccccc12` [38-91], the remaining activity at 2 µg/mL is 20 to 40%.
Consider `CN(C)CCCNc1nc(CN(C)CC2CCCCC2)nc2ccccc12` [38-93], for which the remaining activity at 2 µg/mL lay in the range of 40 to 80%.
